From US10995068B2, “Synthetic sphingolipid-like molecules, drugs, methods of their synthesis and methods of treatment” (The Regents of the University of California, priority 2015, dated 2021)
Where two headings read alike, the source gives them in different places.

Tests used:
[1] = biological target: T1, S1P receptor 2 (Homo sapiens, UniProt O95136); assay: S1P receptor activation in CHO cells, S1P2; format: cell-based; conditions: CHO cells over-expressing human S1P2
T1 construct: expressed in transfected cells
Description: (§1) Phosphorylation may have effects on S1P receptor activity that could cause bradycardia. Bradycardia, the dose-limiting toxicity that prevents the use of FTY720 in cancer patients, stems from FTY720-P's actions on S1P receptors 1 and 3. (Camm, J., et al. (2014) Am. Heart J. 168, 632-644; Cohen, J. A., Chun, J. (2011) Ann. Neurol. 69, 759-777; Sanna, M. G., et al. (2004) J. Biol. Chem. 279, 13839-13848; the disclosures of which are incorporated herein by reference). Phosphorylation by sphingosine kinase may make compounds competent to activate S1P receptors. FTY720, for example, when phosphorylated is known to activate S1P receptors 1 and 3. Because compound 5 could be phosphorylated, the activity of compound 5 and its phosphate 5-P (FIG. 28) on S1P receptors was evaluated (FIG. 32).
(§2) 51P1-5 activation: Chinese hamster ovary (CHO) cells stably over-expressing the different human 51P receptor subtypes are used. S1P1, S1P4 and S1P5 overexpressing CHO cells are cultured in medium containing alpha-MEM supplemented with 10% FBS, 50 μg/ml gentamycin and 0.5 mg/ml G418. S1P2 and S1P3 overexpressing CHO cells are cultured in RPMI containing 10% FBS, 50 μg/ml gentamycin and 0.5 mg/ml G418. Prior to stimulation, cells are rendered serum-free for 24 h. Stimulation is carried out for 10 min in serum-free DMEM containing 0.1 mg/ml of fatty-acid free BSA in the absence or presence of the various compounds or 51P. Protein lysates are prepared using a buffer containing (50 mM Tris pH 7.4, 150 mM NaCl, 10% glycerol, 1% Triton X-100, 2 mM EDTA, 2 mM EGTA, 40 mM β-glycerophosphate, 50 mM sodium fluoride, 10 mM sodium pyrophosphate, 2 mM dithiothreitol, 0.2 mM sodium orthovanadate). Cells are homogenized by one 5 sec burst in a MSE Ultrasonic Disintegrator, centrifuged and taken for protein determination. Equal amounts of protein are separated by SDS-PAGE (10% polyacrylamide gel), transferred to nitrocellulose membranes and subjected to Western blot analysis. Bands were stained using IRDye® secondary antibodies and visualized by the LICOR Odyssey® Fc Imaging system. Antibodies against phospho-Thr202/Tyr204-p42/p44-MAPK and phospho-Ser PKC substrate are from Cell Signaling, Frankfurt am Main, Germany. Polyclonal antisera against total p42 and total p44 were generated and characterized as previously described. (Huwiler, A.; Pfeilschifter, J. Br. J. Pharmacol. 1994, 113, 1455-1463; disclosure of which is incorporated herein by reference).

[2] = biological target: T2, S1P receptor 5 (Homo sapiens, UniProt Q9H228); assay: S1P receptor activation in CHO cells, S1P5; format: cell-based; conditions: CHO cells over-expressing human S1P5
T2 construct: expressed in transfected cells
Description: as §1, §2

[3] = biological target: T3, S1P receptor 3 (Homo sapiens, UniProt Q99500); assay: S1P receptor activation in CHO cells, S1P3; format: cell-based; conditions: CHO cells over-expressing human S1P3
T3 construct: expressed in transfected cells
Description: as §1, §2

[4] = Heart rate by ECG telemetry in mice; format: in vivo, C57BL/6 mice; conditions: single dose 10 mg/kg intraperitoneally
Description: (§3) In more exemplary embodiments, compounds 5 and 5-P were further examined for their ability to activate multiple S1P receptors in vivo. In particular, mouse heart rate and lymphocyte sequestration were examined. Mouse heart rate decreases causing bradycardia when S1P receptor 3 is activated while in humans this effect may be mediated by S1P receptor 1. In both mice and humans, lymphocytes are sequestered when the S1P receptor 1 is activated.
As shown in the telemetry readings detailed in FIG. 36, FTY720 (B) slowed heart rate comparison to compound 5 (C) and the control (A, saline). As shown in A, after administering saline, normal sinus rhythm with clearly discernible P waves, representing atrial depolarization, and QRS complexes, representing ventricular depolarization, at regular intervals is observed. The heart rate in this tracing was approximately 600 beats per minute (BPM). […] Finally, as shown in C, for exemplary embodiment compound 5, similar to the saline injection, normal sinus rhythm with well-defined and consistent P waves and QRS complexes were present following injection. The heart rate in this tracing was approximately 600 BPM, similar to saline.
Heart rate: C57BL/6 mice are surgically implanted with DSI TA-ETAF20 electrocardiographic telemetry devices (Data Sciences International, St. Paul, Minn.). The electrocardiographic data is collected and recorded using the PhysioTel telemetry system and Dataquest A.R.T 4.0 software (DSI). The telemetry device is implanted in the mouse's abdominal cavity with biopotential leads sutured in place in the chest wall. Buprenorphine (0.05 mg/kg) is administered every 12 h after surgery for pain management and enrofloxacin (3 mg/kg) is administered 2× per day for 7 days post-surgery as an antibiotic. Mice are permitted two weeks recovery after surgery before initiation of baseline telemetry recordings. Heart rate is calculated from ECG data taken in the freely moving, conscious mice. Mice are divided into two groups of 3 mice and treated intraperitoneally with a single dose of vehicle (0.9% saline or 20% acidified DMSO in 0.9% saline), 10 mg/kg FTY720, FTY720-Phosphate, 5, or 5-P and heart rate monitored continuously for 10 h. Mice are rested for two weeks at which point the experiment is repeated with the mice assigned to the alternate group. These experiments are performed in accordance with all national or local guidelines and regulations and were approved by the UCI Institutional Animal Care and Use Committee.

[5] = biological target: T4, S1P receptor 1 (Homo sapiens, UniProt P21453); assay: S1P receptor activation in CHO cells, S1P1; format: cell-based; conditions: CHO cells over-expressing human S1P1, 10 min stimulation, Western blot
T4 construct: expressed in transfected cells
Description: as §1, §2

[6] = biological target: T5, S1P receptor 4 (Homo sapiens, UniProt O95977); assay: S1P receptor activation in CHO cells, S1P4; format: cell-based; conditions: CHO cells over-expressing human S1P4
T5 construct: expressed in transfected cells
T5 sequence (O95977 1-384): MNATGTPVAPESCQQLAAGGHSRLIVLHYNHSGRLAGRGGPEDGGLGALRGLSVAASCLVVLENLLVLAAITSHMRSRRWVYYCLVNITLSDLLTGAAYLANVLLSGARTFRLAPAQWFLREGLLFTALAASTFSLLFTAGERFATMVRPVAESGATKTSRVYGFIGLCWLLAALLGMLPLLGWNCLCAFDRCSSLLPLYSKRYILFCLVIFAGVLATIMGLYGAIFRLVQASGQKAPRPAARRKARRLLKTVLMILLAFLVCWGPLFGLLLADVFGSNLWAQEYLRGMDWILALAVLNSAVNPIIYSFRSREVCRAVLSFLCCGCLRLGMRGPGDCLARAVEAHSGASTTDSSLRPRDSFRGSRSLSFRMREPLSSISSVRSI
Description: as §1, §2

[7] = Lymphocyte sequestration in mice; format: in vivo, C57BL6 mice; conditions: 10 mg/kg intraperitoneally, blood after 12 h, compared to saline
Description: as §3
Lymphocyte sequestration: Female 8-24 week old C57BL6 mice are injected intraperitoneally with vehicle (0.9% saline or 20% acidified DMSO in 0.9% saline), 10 mg/kg FTY720, FTY720-phosphate, 5, or 5-P. After 12 h, blood is collected from the retro-orbital sinus under ketamine/xylazine anesthesia. 10 μL of whole blood is added to 190 μL of ACK red blood cell lysis buffer, incubated at room temperature for 3-5 minutes […], and the white blood cells recovered by centrifugation. Nucleated cells (Hoechst33342 positive) are counted using a hemocytometer to obtain the white blood cell count. Separately, 50 μL of whole blood is added to 1 mL of ACK red blood cell lysis buffer and incubated for 3-5 minutes at room temperature. Cells are washed with FACS wash (2% FCS in PBS with 0.05% NaN3) and red blood cell lysis repeated. Tubes are decanted and resuspended in 100 μL of FACS block (10% FCS in PBS with 0.05% NaN3) with directly conjugated antibodies recognizing B220, CD4, or CD8 (all from Biolegend, San Diego) for 30 min on ice. Cells are analyzed on a BD LSR II flow cytometer; the analysis is restricted to live cells (DAPI negative). These experiments are performed in accordance with all national or local guidelines and regulations and are approved by the UCI Institutional Animal Care and Use Committee.

[8] = system: PC3 prostate cancer cells; assay: Cell Titer Glo proliferation assay in PC3; format: cell-based, human; conditions: Cell Titer Glo, 72 h, Mean ± SEM, n ≥ 3, read-out: IC50 values in prostate cancer cell lines, PC3
Description: (§4) Previously presented compounds 1-4 (FIG. 23), compounds 5-8 (FIG. 28), and control compound FTY720 (FIG. 2) were used to treat the well-established PC3 and DU145 prostate cancer lines (FIG. 29 and Table 1). A Cell Titer Glo assay was performed to measure proliferation of the cancer lines.
(§5) Cell culture studies: Sup-B15 cells are maintained at 2-3 million/mL in RPMI 1640 (Mediatech) supplemented with 10% fetal calf serum (FCS, Sigma-Aldrich), 10 mM Hepes (Mediatech), 55 μM β-mercaptoethanol (Sigma-Aldrich), 2 mM L-glutamine (Mediatech), and antibiotics. All adherent cells are maintained at 70-80% confluence. Cell are cultured in the following media: PC3 & A549, Ham's F12K (Corning Cell Gro) supplemented with 10% FCS and antibiotics; DU145 cells, MEM (Corning Cell Gro) supplemented with 10% FCS, 1 mM sodium pyruvate (Mediatech), and antibiotics; SW620 & MDA-MB-231, DMEM (Corning Cell Gro) with 10% FCS, 1 mM sodium pyruvate (Mediatech), and antibiotics; Panc-1 cells, DMEM (Corning Cell Gro) supplemented with 10% FCS and antibiotics. All of the above cell lines are available from the ATCC.
(§6) Viability assays: Cell Titer Glo assays (Cell Titer Glo Luminescent Cell Viability Assay kit, cat #G7571, Promega Corporation) are performed in clear bottom 96-well black cell culture plates (cat #655090, Greiner Bio-One, NC, USA). After plating at 1,000 cells/well in volume of 100 μl, cells are left undisturbed for at least 24 h before drug addition. After 72 h, cells are prepared for analysis by adding 10 μl of 0.1% Triton-X100 in PBS with shaking for 1 min at room temperature (RT). Cell Titer-Glo cell lysis reagent (20 μl) is then added followed by 1 min of shaking and a 10 min incubation in the dark at RT. Luminescence is detected using an IVIS imaging system (IVIS Lumina II, Perkin Elmer, USA). […] IC50s are determined using GraphPad Prism (GraphPad Software, Inc, La Jolla, Calif.). SupB-15 viability was determined by flow cytometry. Cell Titer Glo assays were performed with the other cell lines.

[9] = system: DU145 prostate cancer cells; assay: Cell Titer Glo proliferation assay in DU145; format: cell-based, human; conditions: Mean ± SEM, n ≥ 3, read-out: IC50 values in prostate cancer cell lines, DU145
Description: as §4, §5, §6

[10] = system: PC3 prostate cancer cells; assay: Cell viability by vital dye exclusion and flow cytometry in PC3; format: cell-based, human; conditions: Homo sapiens; vital dye exclusion (DAPI) and flow cytometry, 72 h
Description: Thus, to determine whether analogues in accordance with embodiments of the invention are cytotoxic, studies were conducted using vital dye exclusion and flow cytometry (Table 2).
as §6

T1 sequence (O95136 whole entry): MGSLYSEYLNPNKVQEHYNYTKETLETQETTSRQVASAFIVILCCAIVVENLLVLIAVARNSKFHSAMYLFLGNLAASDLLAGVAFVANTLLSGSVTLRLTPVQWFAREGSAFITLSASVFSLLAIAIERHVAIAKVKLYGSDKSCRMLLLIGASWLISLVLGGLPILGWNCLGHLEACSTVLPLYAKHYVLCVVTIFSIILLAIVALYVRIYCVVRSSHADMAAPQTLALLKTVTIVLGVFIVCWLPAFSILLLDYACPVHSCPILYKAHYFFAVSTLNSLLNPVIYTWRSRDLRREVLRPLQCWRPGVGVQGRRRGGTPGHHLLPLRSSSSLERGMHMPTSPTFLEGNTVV
T2 sequence (Q9H228 whole entry): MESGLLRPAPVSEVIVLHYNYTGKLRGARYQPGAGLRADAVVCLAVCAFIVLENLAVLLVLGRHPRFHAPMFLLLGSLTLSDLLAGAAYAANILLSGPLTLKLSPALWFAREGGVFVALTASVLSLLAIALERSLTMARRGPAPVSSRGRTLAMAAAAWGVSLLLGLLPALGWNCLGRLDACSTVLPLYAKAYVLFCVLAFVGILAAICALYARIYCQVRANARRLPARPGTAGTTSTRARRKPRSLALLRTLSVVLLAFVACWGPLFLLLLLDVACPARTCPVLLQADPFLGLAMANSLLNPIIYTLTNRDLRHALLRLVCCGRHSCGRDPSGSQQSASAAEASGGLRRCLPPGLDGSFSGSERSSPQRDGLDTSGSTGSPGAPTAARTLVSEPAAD
T4 sequence (P21453 whole entry): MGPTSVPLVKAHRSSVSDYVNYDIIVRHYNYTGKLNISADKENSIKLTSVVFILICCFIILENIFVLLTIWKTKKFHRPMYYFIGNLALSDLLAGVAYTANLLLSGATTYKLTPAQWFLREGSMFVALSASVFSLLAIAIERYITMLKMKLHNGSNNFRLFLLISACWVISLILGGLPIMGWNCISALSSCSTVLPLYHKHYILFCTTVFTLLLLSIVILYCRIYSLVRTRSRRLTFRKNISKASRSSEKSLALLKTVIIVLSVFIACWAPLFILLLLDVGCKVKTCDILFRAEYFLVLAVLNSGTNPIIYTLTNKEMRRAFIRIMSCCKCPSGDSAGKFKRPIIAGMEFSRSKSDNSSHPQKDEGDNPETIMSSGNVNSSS
T3 sequence (Q99500 whole entry): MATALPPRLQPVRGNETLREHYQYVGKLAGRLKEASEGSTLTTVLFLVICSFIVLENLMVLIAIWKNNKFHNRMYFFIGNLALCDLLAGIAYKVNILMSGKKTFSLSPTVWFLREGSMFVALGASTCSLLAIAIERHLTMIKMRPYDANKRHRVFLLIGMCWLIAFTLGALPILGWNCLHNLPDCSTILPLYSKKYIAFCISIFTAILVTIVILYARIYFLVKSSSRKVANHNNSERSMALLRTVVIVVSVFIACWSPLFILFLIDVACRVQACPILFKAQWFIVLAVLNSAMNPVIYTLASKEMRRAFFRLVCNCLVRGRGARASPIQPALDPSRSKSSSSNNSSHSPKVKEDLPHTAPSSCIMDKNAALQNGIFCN

Row | Structure (SMILES) | activation of S1P receptor 2 [1] | activation of S1P receptor 5 [2] | activation of S1P receptor 3 [3] | effect on heart rate ([4]; compared to saline controls) | activation of S1P receptor 1 [5] | activation of S1P receptor 4 [6] | lymphocyte sequestration [7] | IC50 [8] [µM] | IC50 ([9]; 72 h) [µM] | decrease of heart rate ([4]; compared to saline vehicle) | IC50 [10] [µM] | IC50 ([8]; Homo sapiens) [µM] | IC50 ([9]; Homo sapiens, DU-145, 72 h) [µM]
1 | CCCCCCCCc1ccc([C@H]2CCN[C@@H]2COP(=O)(O)O)cc1 [Compound 5-P, ((2S,3R)-3-(4-octylphenyl)pyrrolidin-1-ium-2-yl)Methyl hydrogen phosphate] | failed to activate | failed to activate | failed to activate | no significant effect | weakly activated | failed to activate | no significant effect |  |  |  |  |  | 
2 | CCCCCCCCc1ccc([C@@H]2CCN[C@H]2C)cc1.Cl [Compound 12] | not able to activate | not able to activate | not able to activate |  | not able to activate | not able to activate |  | 4.1 ± 0.4 | 5 ± 0.1 |  |  |  | 
3 | CCCCCCCCCCCCC/C=C/[C@@H](O)[C@@H](N)COP(=O)(O)O [Compound S1P, sphingosine-1 phosphate, reference compound] | activated | activated | activated |  | activated | activated |  |  |  |  |  |  | 
4 | CCCCCCCCc1ccc(CC[C@](N)(CO)COP(=O)(O)O)cc1 [FTY720-P, reference compound] |  |  |  |  |  |  | significantly sequestered lymphocytes |  |  | approximately 50% |  |  | 
5 | CCCCCCCCc1ccc([C@H]2C[C@H](CO)N[C@H]2CO)cc1 [Compound 3, (2R,3R,5R)-2,5-Bis(hydroxymethyl)-3-(4-octylphenyl)pyrrolidinium chloride] |  |  |  |  |  |  |  |  |  |  | 8.3 ± 0.2 | 4.9 ± 0.6 | 5.3 ± 0.2
